Entries after “also recorded” stand apart in the source; their conditions may differ. Like-named read-outs stand apart in the source and are kept apart here.
Tests used:
[1] = test system: CD133+ cancer stem cells in tumour cell lines; assay: CD133 content by flow cytometry in tumour cell lines after 48 hours of in-vitro treatment; format: cell-based, human
Experimental: As a first step the content of cancer stem cells (measured as “CD 133-content”) in the whole population of tumour cells was measured by flow cytometry (FIGS. 1A-1C).
As a first step the content of cancer stem cells (measured as “CD 133-content”) within the entire tumour cell population was measured by flow cytometry (FIGS. 10A-10C).

[2] = test system: CD133+ pancreatic cancer stem cells (L3.6pl cells); assay: CD133 content by flow cytometry in L3.6pl pancreatic cancer cells; format: cell-based, human; details: for CD133 content of L3.6pl cells: Example 4.2, inhibitor alone or with Gemcitabine
Experimental: In this experiment, potentially effective substances for the targeted elimination of CD133^+ pancreatic cancer stem cells (CSC) were screened by means of flow cytometry following 48 hours of therapy. […] As a Gemcitabine concentration of 100 ng/ml was the lowest concentration capable of achieving a strong relative enrichment for CD133^+ cells through depletion of CD133^− cells, this concentration was chosen for subsequent experiments.
(§1) Human pancreatic cancer cell line. The highly metastatic human pancreatic cell line L3.6pl was maintained in DMEM medium (Invitrogen, Karlsruhe, Germany) with 12% Fetal Calf Serum (Biochrom, Berlin, Germany), Glutamax (Invitrogen), non-essential amino acids, and vitamins (all from PAN, Aidenbach, Germany) (Hermann et al., 2007, supra). Cultures were kept no longer than 4 weeks after recovery from frozen stocks. CSC spheres were cultured in DMEM-F12 supplemented with B27 (Gibco, Karlsruhe, Germany) and FGF-2 (PeproTech EC, London, United Kingdom) (Hermann et al., 2007, supra).
Cytometry. Pancreatic CSC were identified by CD133/1-APC or CD133-PE (Miltenyi, Bergisch-Gladbach, Germany) (Hermann et al., 2007, supra). Side population experiments were performed as described by Goodell et al. (1996) (see Goodell et al., 1996, J Exp Med 183, 1797-1806) and cells were identified by exclusion of the vital dye Hoechst 33342. To detect activation of the PI3K/Akt/mTOR pathway by means of the phosphorylation status of the s6 ribosomal protein (s6rp), cells cultivated with standard medium were stained with a rabbit anti-phospho-S6 ribosomal protein antibody (Cell Signalling Technology, Danvers, Mass.).
(§2) In vitro treatment of pancreatic cancer cells. […] For the evaluation of the in vivo tumorigenicity, […] L3.6pl cells were pretreated with the respective regimen and the remaining viable cells were orthotopically implanted into the pancreas of nude mice and evaluated on day 35. For the systemic infusion assay, cells were labelled with the Qtracker 800 labelling kit (Invitrogen) according to the manufacturer's instructions, and 5×10^5 cells were injected intravenously into mice. After 4 weeks, explanted lungs were scanned for metastases with a near-infrared imaging platform (Odyssey, Li-cor, Lincoln, Nebr.). Positive signals were verified by histology (H&E staining).
(§3) Using SB431542, a specific inhibitor of the receptors for Nodal and Activin, ALK-4 and -7 respectively, it was investigated whether the content of the CD133(+) population is affected by inhibition of Activin/Nodal signaling. As mutations affecting the TGF-superfamily pathway are very common in pancreatic neoplasms, pancreatic cell lines harboring different mutations in this pathway were screened (Table 1).

[3] = test system: L3.6pl pancreatic cancer cells; assay: Tumorigenicity after in vitro pre-treatment and orthotopic implantation; format: in vivo, mice
Experimental: After 96 hours of pretreatment, the remaining viable cells were orthotopically implanted into the pancreas of mice, which received no further treatment in vivo.
Cultivated pancreatic cancer cells were exposed to either Gemcitabine alone representing clinical standard therapy, SB431542 alone, or a combination of Gemcitabine and SB431542 in the above given respective concentrations. After 96 hours of pretreatment, the remaining viable cells were orthotopically implanted into the pancreas of mice, which received no further treatment in vivo.
A prerequisite of CSC is their ability to form tumours in secondary recipients. Due to the limited number of cancer (stem) cells that can be obtained from primary tissues, it is virtually impossible to reproducibly perform in vivo treatment experiments with fresh patient-derived cells. Therefore, all subsequent in vivo experiments were performed with the established L3.6pl pancreatic cancer cells. The design of the experiment is illustrated in FIG. 20A. […] After 4 days of pretreatment, the surviving cells were orthotopically implanted into the pancreas, which received no further in vivo treatment. Tumorigenicity was first determined by PET scans on day 30 (FIGS. 20B, 20C; left panel) and by final macroscopic and microscopic histological evaluation on day 35 (FIGS. 20B, 20C; right panel).
Animals and Orthotopic Implantation of Tumour Cells. Single-cell suspensions were orthotopically implanted into the pancreas of female NMRI nu/nu mice (Janvier, Le Genest-Saint-Isle, France) (Hermann et al., 2007, supra). Size and weight of the pancreatic tumours were monitored.
as §2

[4] = test system: pancreatic CSC spheres; assay: CSC-enriched tumour sphere assay; format: cell-based, human; details: ultra low adhesion 6-well plates
Experimental: First, pancreatic CSC were clonally expanded as CSC-enriched spheres (FIGS. 18C1-18C5). Floating spheres were treated in ultra low adhesion 6-well plates. After completion of the treatment, five randomly selected high-power fields were analyzed.
as §1

[5] = test system: CSC population; details: fraction of original population remaining; cited from earlier work
[6] = test system: MiaPaca cells; assay: CD133 content by flow cytometry in MiaPaCa cells; format: cell-based, human
Description: as §3, with “1). […] Without being bound thereto, this indicates a Nodal/[…] mediated pathway being independent from SMAD4 as an underlying mechanism.” for “1).”

[7] = test system: BxPC3 cells; assay: CD133 content by flow cytometry in BxPC3 cells; format: cell-based, human
Description: as §3, with “1). […] Without being bound thereto, this indicates a Nodal/[…] mediated pathway being independent from SMAD4 as an underlying mechanism.” for “1).”

[8] = test system: CD133-positive cells; assay: Cell cycle / apoptosis of CD133-positive cells (BrDU flow kit); format: cell-based
Description: As the precise fate of CD133-positive cells during treatment with antagonists of Activin or Nodal was to be assessed, the cell cycle of these cells was investigated using a BrDU flow kit (see FIGS. 26A-26G).

[9] = test system: Alk4/7; assay: Smad2 phosphorylation after recombinant Nodal; format: cell-based
[10] = test system: primary human pancreatic cancer cells; assay: Sphere formation in primary human pancreatic cancer cells; format: cell-based
[11] = test system: primary human pancreatic cancer tissue; assay: In vivo treatment of implanted patient pancreatic tumor tissue with gemcitabine plus SB431542; set-up: species or system mice; details: mouse, in vivo
Experimental: FIG. 33: In vivo treatment with the Alk4/7 inhibitor SB431542. This illustrates Nodal/Activin inhibition to eliminate primary human pancreatic CSC in vivo. Tumor tissue from patient with pancreatic cancer was implanted into immunocompromised mice. Treatment was started on day 7 after implantation. Mice were randomized to gemcitabine alone or gemcitabine plus SB431542. Tumor growth was assessed on day 28.

[12] = test system: sphere derived cells (185s); assay: Soft agar colony formation assay; format: cell-based; details: soft agar assay 14d
Description: FIGS. 31A-D: show a Gain of function by Nodal stimulation—Sphere derived cells (185s) bear a higher colony forming capacity as compared to adherent cells (185) as evidence for an enrichment in cancer stem cells (in a soft agar assay 14d).

[13] = test system: CD133 positive CSC; assay: CD133 positive population after extracellular antagonists of Nodal and Activin A; format: cell-based
Description: Furthermore, cells in culture were subjected to extracellular antagonists of Nodal (Lefty) and Activin A (Follistatin) to see whether both components are functionally relevant for the maintenance of the CD133 positive CSC compartment.

[14] = 5 μM SB431542, 100 ng/ml Gemcitabine, ALK5 inhibitor SB-505124

Molecule: CC1=C2C[C@H]3[C@@H](CC=C4C[C@@H](O)CC[C@@]43C)[C@@H]2CC[C@]12O[C@@H]1C[C@H](C)CN[C@H]1[C@H]2C [Cyclopamine, 11-deoxojervine]
- content of cancer stem cells (CD 133-content) ([1]; 100 ng/ml Gemcitabine, 100 ng/ml Rapamycin, 10 μM Cyclopamine, separately or triple combination): None of the investigated molecules (Gemcitabine, Rapamycin and Cyclopamine) was capable of significantly reducing
- CD133+ cell content ([2]; 48 hours of therapy, Gemcitabine 100 ng/ml): moderate, albeit significant decrease
- CD133 content ([2]; inhibitor alone, CUR199691 10 μM): 55%
- tumour take rate / tumorigenicity ([3]; 4 days of pretreatment, PET day 30, histology day 35): neither Cyclopamine nor Rapamycin monotherapy significantly affected tumour take rates
- tumour spheres / CD133+ cells in CSC-enriched spheres [4]: reduction of tumour spheres
- reduction of the original CSC population (aldehyde dehydrogenase marker) [5]: ⅓

Molecule: NC(=O)c1ccc(-c2nc(-c3ccc4c(c3)OCO4)c(-c3ccccn3)[nH]2)cc1 [SB431542]
- content of cancer stem cells (CD 133-content) [1, 14]: significant reduction
- CD133 content 24 hours after withdrawal of therapy ([2]; 24 hours after withdrawal): already started to approach control level
- CD133 content 48 h after withdrawal of therapy ([2]; 48 h after withdrawal): enrichment for CD133 compared to base level
- CD133 content of L3.6pl cells [2]: decrease; also recorded: drastically reduced
- tumorigenicity after in vitro pre-treatment ([3]; 96 hours pretreatment, 100 ng/ml Gemcitabine, 5 μM SB431542): close to no effect; also recorded: did not affect the tumorigenicity
- CD133(+) sub-population of MiaPaca cells [6]: decrease
- CD133 content of BxPC3 cells [7]: no response
- induction of apoptosis in CD133-positive cells [8]: modest induction of apoptosis
- phosphorylation of Smad2 (pSmad2) [9]: abrogated this increase in pSmad2
- cell viability (dapi staining) [10]: did not affect cell viability
- sphere formation [10]: in a dose-dependent manner reduced sphere formation
- body weight [11]: lack of change
- severe side effects [11]: did not result in severe side effects
- white blood cell counts (WBC) [11]: lack of change

Molecule: Cc1cccc(-c2[nH]c(C(C)(C)C)nc2-c2ccc3c(c2)OCO3)n1 [SB505124]
- content of cancer stem cells (CD 133-content) [1, 14]: did not lead to significant reduction
- CD133 content of L3.6pl cells [2]: neither alone nor in combination with Gemcitabine an effect

B1: recombinant Nodal: recombinant Nodal, member of the TGF-β superfamily, used as stimulus (protein, UniProt Q96S42 238-347, looked up)
Nodal homolog: HHLPDRSQLCRKVKFQVDFNLIGWGSWIIYPKQYNAYRCEGECPNPVGEEFHPTNHAYIQSLLKRYQPHRVPSTCCAPVKTKPLSMLYVDNGRVLLDHHKDMIVEECGCL
- phosphorylation of Smad2 (pSmad2) [9]: increased phosphorylation of downstream Smad2
- colony formation [12]: further increase in colony formation

B2: Folistatin: single chain glycoprotein, inhibitor of Activin signaling (protein, UniProt P19883 30-344, looked up)
Follistatin: GNCWLRQAKNGRCQVLYKTELSKEECCSTGRLSTSWTEEDVNDNTLFKWMIFNGGAPNCIPCKETCENVDCGPGKKCRMNKKNKPRCVCAPDCSNITWKGPVCGLDGKTYRNECALLKARCKEQPELEVQYQGRCKKTCRDVFCPGSSTCVVDQTNNAYCVTCNRICPEPASSEQYLCGNDGVTYSSACHLRKATCLLGRSIGLAYEGKCIKAKSCEDIQCTGGKKCLWDFKVGRGRCSLCDELCPDSKSDEPVCASDNATYASECAMKEAACSSGVLLEVKHSGSCNSISEDTEEEEEDEDQDYSFPISSILEW
- CD133 positive CSC population [13]: reduction of CD133 positive CSC that was similar to the reduction seen for Lefty
- CD133 positive CSC population ([13]; listed as folistatin): reduction of CD133 positive cancer stem cells

— US20110151020A1, “ACTIVE SUBSTANCE COMBINATION WITH GEMCITABINE FOR THE TREATMENT OF EPITHELIAL CANCER” (priority 2008, published 2011)
